Laboratory results: US20090099029A1, “Methods and substrates for conducting assays” (Invitrogen Corporation, priority 2005, published 2009)

Biological target: FYN (Homo sapiens, UniProt P06241)
Assay: Global specificity profiling experiment, single point inhibition on kinase microarray
Format: biochemical
Conditions: substrates histone, casein, MBP, polyEY
Procedure: The wash solution is then discarded.
A mixture of generic kinase substrates (histone, casein, MBP, and polyEY) was used in the assay. The average of all signals from the same inhibitor or control experiment was calculated.
To expedite data analysis regarding the kinase families that are inhibited by a particular […], a graphical representation can be constructed of inhibition data for substrates in such a manner that phylogenetically related kinases can be spatially arranged on the graphical representation.

Chain of FYN (P06241 whole entry): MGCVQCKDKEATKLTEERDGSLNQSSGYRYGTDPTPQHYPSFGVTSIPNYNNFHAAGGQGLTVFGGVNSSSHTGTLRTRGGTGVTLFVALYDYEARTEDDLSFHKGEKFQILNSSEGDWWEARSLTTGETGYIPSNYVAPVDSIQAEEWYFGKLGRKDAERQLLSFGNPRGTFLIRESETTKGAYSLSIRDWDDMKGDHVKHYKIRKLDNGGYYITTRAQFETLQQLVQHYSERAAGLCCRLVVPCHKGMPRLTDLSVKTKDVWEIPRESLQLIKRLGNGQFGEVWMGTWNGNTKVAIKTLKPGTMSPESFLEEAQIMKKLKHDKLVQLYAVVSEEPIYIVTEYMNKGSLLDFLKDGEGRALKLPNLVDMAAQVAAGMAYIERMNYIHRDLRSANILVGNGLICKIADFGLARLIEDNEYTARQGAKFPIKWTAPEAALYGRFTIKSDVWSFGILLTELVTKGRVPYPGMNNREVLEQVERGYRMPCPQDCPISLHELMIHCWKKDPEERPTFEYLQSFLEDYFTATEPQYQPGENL

In the case of `CN[C@@H]1C[C@H]2O[C@@](C)([C@@H]1OC)n1c3ccccc3c3c4c(c5c6ccccc6n2c5c31)C(=O)NC4` [Staurosporine], the “inhibition of FYN in global profiling” value was “inhibited”.
